For 24 molecules, IC50 results are on record in patent publication US20250171462A1 (NICO Therapeutics, Inc., priority 2022, published 2025).

This experiment concerns the target T1, full-length SARM1 (FL-SARM1) (Homo sapiens, UniProt Q6SZW1).
T1 sequence (Q6SZW1 28-724): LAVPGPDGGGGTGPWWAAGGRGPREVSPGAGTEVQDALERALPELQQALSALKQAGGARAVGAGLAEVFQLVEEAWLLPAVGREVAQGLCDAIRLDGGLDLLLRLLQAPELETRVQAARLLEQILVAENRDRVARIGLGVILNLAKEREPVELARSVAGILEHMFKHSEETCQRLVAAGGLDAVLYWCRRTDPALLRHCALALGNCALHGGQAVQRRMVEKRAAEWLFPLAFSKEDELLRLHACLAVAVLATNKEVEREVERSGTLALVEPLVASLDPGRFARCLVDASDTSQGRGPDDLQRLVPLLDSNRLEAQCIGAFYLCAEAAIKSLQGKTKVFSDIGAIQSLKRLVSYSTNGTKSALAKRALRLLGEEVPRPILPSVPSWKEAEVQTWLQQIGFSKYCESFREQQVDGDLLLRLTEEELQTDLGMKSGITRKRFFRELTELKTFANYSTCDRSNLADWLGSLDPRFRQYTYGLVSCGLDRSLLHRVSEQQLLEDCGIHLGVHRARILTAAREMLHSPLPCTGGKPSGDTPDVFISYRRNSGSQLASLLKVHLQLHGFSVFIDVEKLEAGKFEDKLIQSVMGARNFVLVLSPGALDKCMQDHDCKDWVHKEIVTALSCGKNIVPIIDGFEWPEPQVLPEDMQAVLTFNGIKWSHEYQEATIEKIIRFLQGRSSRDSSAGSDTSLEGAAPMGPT
The experiment is described as follows: FL-SARM1 cellular lysate assay (NAD/NADH-Glo detection of remaining NAD+, NMN-activated).

[1] abbreviates: Activity (IC50 class), 11 point curve.
The mark [2] stands for this setting: Activity (μM) (IC50), 11 point curve.
[3] abbreviates: read-out: Activity (IC50 class), 11 point curve.

Read-outs that look alike come from different tables or passages of the source.

What is called IC50 is the concentration at which inhibition is half-maximal. As to `Cc1ccc(NC(=O)C2[C@@H]3CC[C@@]2(c2ccnn2C)C3)cc1-c1ncc(F)cn1` (single isomer, unassigned) [Example 203, N-[3-(5-fluoropyrimidin-2-yl)-4-methylphenyl]-1-(2-methylpyrazol-3-yl)bicyclo[2.1.1]hexane-5-carboxamide], the IC50 under setting [1] was greater than 10 µM and the 50% inhibitory concentration (IC50) under setting [2] was greater than 50 µM.

As for `Cc1ccc(NC(=O)C2C3CCC2(c2ccn(C)n2)C3)cc1-c1ncc(F)cn1` (mixture of isomers) [Example 317], the IC50 reads like this: under setting [1], 1 to 10 µM; under setting [2], 1 µM.

For `Cc1ccc(NC(=O)N2CCCC2C2CC2)cc1-c1ccccn1` (racemic) [Example 92, 2-cyclopropyl-N-(4-methyl-3-pyridin-2-ylphenyl)pyrrolidine-1-carboxamide], the IC50 is, setting by setting: under setting [1], 1 to 10 µM; under setting [2], 2.3 µM.

As to `CO[C@H]1CCCN(C(=O)Nc2ccc(C(F)(F)F)c(-c3ncc(F)cn3)c2)CC1` [Example 307, (S)-N-(3-(5-fluoropyrimidin-2-yl)-4-(trifluoromethyl)phenyl)-4-methoxyazepane-1-carboxamide], the half-maximal inhibitory concentration (IC50) is greater than 10 µM under setting [1] and 13 µM under setting [2].

As for `O=C(Nc1ccc(C(F)(F)F)c(-c2ncc(F)cn2)c1)N1C2CC3CC(C2)CC1C3` [Example 310, N-(3-(5-fluoropyrimidin-2-yl)-4-(trifluoromethyl)phenyl)-2-azaadamantane-2-carboxamide], the half-inhibitory concentration (IC50) is 0.7 µM under setting [2] and 0.0001 to 1 µM under setting [3].

For the molecule `Cc1c(Cl)cc(NC(=O)N2C3CCCC2C3)cc1-c1ccccn1` [Example 77, N-(3-chloro-4-methyl-5-(pyridin-2-yl)phenyl)-6-azabicyclo[3.1.1]heptane-6-carboxamide], the half-maximal inhibitory concentration (IC50) runs as follows: under setting [2], 0.8 µM; under setting [3], 0.0001 to 1 µM.

Take `Cc1ccc(NC(=O)[C@H]2C[C@H]3C[C@H]3N2c2nccnn2)cc1-c1ncc(F)cn1` [Example 262, (1R,3R,5R)-N-(3-(5-fluoropyrimidin-2-yl)-4-methylphenyl)-2-(1,2,4-triazin-3-yl)-2-azabicyclo[3.1.0]hexane-3-carboxamide]: the 50% inhibitory concentration (IC50) runs as follows: under setting [1], 1 to 10 µM; under setting [2], 2.5 µM.

As to `Cc1ccc(NC(=O)N2C3CCCC2C3)cc1-c1ncc(F)c(C#N)n1` [Example 251, N-[3-(4-cyano-5-fluoropyrimidin-2-yl)-4-methylphenyl]-6-azabicyclo[3.1.1]heptane-6-carboxamide], the IC50 under setting [1] was 1 to 10 µM and the IC50 under setting [2] amounted to 1 µM.

Regarding `Cc1ccc(NC(=O)C2CC3CC3CN2c2ccccn2)cc1-c1ncc(F)cn1` (mixture of isomers) [Example 260, N-(3-(5-fluoropyrimidin-2-yl)-4-methylphenyl)-3-(pyridin-2-yl)-3-azabicyclo[4.1.0]heptane-4-carboxamide], the half-maximal inhibitory concentration (IC50) runs as follows: under setting [1], 1 to 10 µM; under setting [2], 1.3 µM.

`COC(=O)N1C[C@@H]2C[C@H]1CN2C(=O)Nc1ccc(C)c(-c2ccccn2)c1` [Example 1, (1S,4S)-Methyl 5-((4-methyl-3-(pyridin-2-yl)phenyl)carbamoyl)-2,5-diazabicyclo[2.2.1]heptane-2-carboxylate]: the IC50 was greater than 10 µM under setting [1] and 23 µM under setting [2].

Regarding `Cc1ccc(NC(=O)N2C3CCC2c2ccccc23)cc1-c1ccccn1` [Example 8, N-[4-Methyl-3-(2-pyridyl)phenyl]-11-azatricyclo[6.2.1.02,7]undeca-2,4,6-triene-11-carboxamide], the concentration for half-maximal inhibition (IC50) is, setting by setting: under setting [2], 0.06 µM; under setting [3], 0.0001 to 1 µM.

For the molecule `Cc1ccc(NC(=O)N2C3CC2c2ncnn2C3)cc1-c1ccccn1` (stereo not drawn) [Example 80, N-(4-methyl-3-pyridin-2-ylphenyl)-3,5,6,9-tetrazatricyclo[6.1.1.02,6]deca-2,4-diene-9-carboxamide], the IC50 reads like this: under setting [1], greater than 10 µM; under setting [2], 13 µM.

Regarding `Cc1c(-c2ncc(F)cn2)cc(NC(=O)N2C3CCCC2C3)c(F)c1F` [Example 250, N-[2,3-difluoro-5-(5-fluoropyrimidin-2-yl)-4-methylphenyl]-6-azabicyclo[3.1.1]heptane-6-carboxamide], the IC50 is 1 to 10 µM under setting [1] and 1.5 µM under setting [2].

For `Cc1ccc(NC(=O)N2[C@@H]3C[C@@H](C)C[C@H]2C3)cc1-c1ccccn1` [Example 11, cis-3-Methyl-N-(4-methyl-3-(pyridin-2-yl)phenyl)-6-azabicyclo[3.1.1]heptane-6-carboxamide], the half-maximal inhibitory concentration (IC50) was 0.01 µM under setting [2] and 0.0001 to 1 µM under setting [3].

On to `Cc1ccc(NC(=O)N2CC(C)C2)cc1-c1ncc(F)cn1` [Example 232, N-[3-(5-fluoropyrimidin-2-yl)-4-methylphenyl]-3-methylazetidine-1-carboxamide], for which the half-maximal inhibitory concentration (IC50) by setting is: under setting [1], greater than 10 µM; under setting [2], 20 µM.

On to `Cc1ccc(NC(=O)[C@H]2CCCN2c2ccccn2)cc1-c1ncc(F)cn1` [Example 279, (2R)-N-[3-(5-fluoropyrimidin-2-yl)-4-methylphenyl]-1-pyridin-2-ylpyrrolidine-2-carboxamide], for which the half-inhibitory concentration (IC50) reads like this: under setting [1], 1 to 10 µM; under setting [2], 4.2 µM.

As to `Cc1cc(F)c(NC(=O)N2C3C[C@@H](C4CC4)C[C@H]2C3)cc1-c1cccnn1` [Example 241, cis-3-cyclopropyl-N-(2-fluoro-4-methyl-5-pyridazin-3-ylphenyl)-6-azabicyclo[3.1.1]heptane-6-carboxamide], the IC50 reads like this: under setting [2], 0.09 µM; under setting [3], 0.0001 to 1 µM.

With `Cc1ccc(NC(=O)N2CCCC(C)CC2)cc1-c1ncc(F)cn1` (racemic) [Example 213, N-(3-(5-fluoropyrimidin-2-yl)-4-methylphenyl)-4-methylazepane-1-carboxamide], the 50% inhibitory concentration (IC50) reads like this: under setting [2], 0.2 µM; under setting [3], 0.0001 to 1 µM.

Molecule `Cc1ccc(NC(=O)[C@H]2C[C@@H](c3ccccc3)CN2c2ncccn2)cc1-c1ncc(F)cn1` [Example 319] registered a 50% inhibitory concentration (IC50) under setting [1] of 1 to 10 µM and an IC50 under setting [2] of 6.7 µM.

Consider `O=C(Nc1ccc(-c2ccccc2)c(-c2ccccn2)c1)[C@@H]1CC1(F)F` [Example 148, (1S)-2,2-difluoro-N-(4-phenyl-3-pyridin-2-ylphenyl)cyclopropane-1-carboxamide], for which the half-inhibitory concentration (IC50) is greater than 10 µM under setting [1] and 38 µM under setting [2].

As to `Cc1ccc(NC(=O)N2C3CCCC2C3)cc1-c1cccc(C#N)n1` [Example 44, N-(3-(6-cyanopyridin-2-yl)-4-methylphenyl)-6-azabicyclo[3.1.1]heptane-6-carboxamide], the IC50 reads like this: under setting [2], 0.1 µM; under setting [3], 0.0001 to 1 µM.

For `CCN1CC2CC(C1)N2C(=O)Nc1ccc(C)c(-c2ccccn2)c1` [Example 7, 3-Ethyl-N-(4-methyl-3-(pyridin-2-yl)phenyl)-3,6-diazabicyclo[3.1.1]heptane-6-carboxamide], the concentration for half-maximal inhibition (IC50) reads like this: under setting [1], 1 to 10 µM; under setting [2], 4 µM.

Consider `Cc1ccc(NC(=O)N2CCc3ccccc3C2)cc1-c1ccccn1` [Example 101, N-(4-methyl-3-pyridin-2-ylphenyl)-3,4-dihydro-1H-isoquinoline-2-carboxamide], for which the IC50 is, setting by setting: under setting [1], 1 to 10 µM; under setting [2], 10 µM.

With `Cc1nnc(CN2[C@@H](C(=O)Nc3ccc(C)c(-c4ncc(F)cn4)c3)C[C@H]3C[C@H]32)o1` [Example 171, (1R,3R,5R)—N-(3-(5-fluoropyrimidin-2-yl)-4-methylphenyl)-2-((5-methyl-1,3,4-oxadiazol-2-yl)methyl)-2-azabicyclo[3.1.0]hexane-3-carboxamide], the IC50 reads like this: under setting [1], greater than 10 µM; under setting [2], 18 µM.
